Laboratory results taken from article PMC8110578, “Phenylethynylbenzyl-modified biguanides inhibit pancreatic cancer tumor growth” (Scientific Reports, 2021).

Tests used:
KP4 cells = assay: Seahorse analysis of OCR and ECAR, KP4 cells; assay type: cell-based, human; conditions: 1b 15 µM; for Effect on ECAR (extracellular acidification rate): metformin; for Effect on oxygen consumption rate (OCR): metformin 5 mM
Text: Figure 3 Effects of biguanides on cell proliferation and viability in pancreatic cancer cells. […]. […] | decimal sign comma or point
Next, we used the Seahorse analyser to quantify the ability of compound 1b to affect oxygen consumption rate (OCR) in KP4 cells. […]. […] […].
All chemicals were purchased from Aldrich Chemicals in their highest purity and used without further purification. Deuterated dimethylsulfoxide (DMSO-d^6) and deuterated chloroform (CDCl3) were purchased from CDN Isotopes. NMR spectra were recorded on Bruker advance 400 and 100 spectrometers. Coupling constants are given in hertz (Hz) and chemical shifts are given in parts per million (ppm, δ) measured relative to the residual solvent (the multiplicity of the signals are given as s: singlet, d: doublet, t: triplet, and m: multiplet). High-resolution mass spectra (HRMS) were recorded on a TSQ Quantum Ultra (Thermo Scientific) triple quadrupole with accurate mass option instrument (Université de Montréal Mass Spectrometry Facility). MS experiences were performed using an UltrafleXtreme MALDI TOF/TOF mass spectrometer equipped with a SmartBeam II Nd:Yag/355 nm laser operating at 1 kHz and providing a laser focus down to 20 μm in diameter (Bruker Daltonics, Billerica, MA). The data acquisition for MS was performed in positive ion mode using the linear geometry with flexControl 3.4 (Bruker Daltonics, Billerica, MA). Acceleration voltage was set to + 25 kV and all other instrumental parameters (delayed extraction parameters, source voltages, detector gain, laser energy, etc.) were optimized for maximum S/N for the drug compounds. L-α-Phosphatidylcholine was purchased from Avanti Polar Lipids. Transport and depolarization studies as well as absorbance measurements were performed on a Varian Cary Eclipse fluorescence spectrophotometer. The hemolysis assays were performed on a Fluostar Optima plate reader. Single crystals of C18H18F3N5O3S were obtained from chloroform. A suitable crystal was selected and analysed on a Bruker Venture Metaljet diffractometer. Crystal violet retention assay was used for cell growth assays and IC50 were determined using Prism (GraphPad). NAD/NADH quantitation colorimetric kit (#K337-100) from Biovision was used according to manufacturer’s instructions. ECAR (extracellular acidification rate) and OCR of KP4 cells (oxygen consumption rate) were measured on a Seahorse XF-24 (Agilent).
Experimental. ECAR (extracellular acidification rate) and OCR of KP4 cells (oxygen consumption rate) were measured on a Seahorse XF-24 (Agilent). The day before the experiment, KP4 cells were seeded in XF24 FluxPak seahorse plates (Agilent) at a density of 40.000 cells per well, in usual KP4 culture medium (DMEM, 10% FSB). […]

[1] = HPTS assay, internal pH of EYPC liposomes; conditions: 5 mM (50 mol% relative to 10 mM EYPC), NaOH pulse at 300 s
Experimental: (§1) Figure 2 (A) Partition of compounds in an U-tube experiment. Concentration of biguanide on the trans-side of the U-tube at 48 h and 72 h at 25 °C, after addition of 250 µM of biguanide on the cis-side. (B) Variation in the internal pH of HPTS-containing EYPC liposomes. Intravesicular solution: 1 mM HPTS, 10 mM HEPES, and 100 mM NaCl, adjusted to pH = 7.4, and extravesicular solution: 10 mM HEPES and 100 mM NaCl, adjusted to pH = 7.4. Biguanidiums were injected after 50 s at 5 mM (50 mol% relative to the 10 mM EYPC concentration), a NaOH pulse was induced at 300 s, and the liposomes were lysed with Triton-X at 550 s. Each curve is the average of three independent measurements. (C) Fluorescence of safranin O in the EYPC liposomes. Biguanidium salts were injected at 5 mM (50 mol% relative to the 10 mM EYPC concentration) at 50 s. Each curve is the average of three independent measurements. […] Mitochondrial isolation was performed according to the previously reported protocol.

[2] = test system: NB508 mouse pancreatic ductal adenocarcinoma cells; assay: In vitro growth inhibition screen at 5 µM, NB508 cells; assay type: cell-based; conditions: 72 h at 37 °C
Text: Figure 1 (A) Structure and crystal packing of previously studied PEB-disubstituted (A.1) and monosubstituted (A.2 and A.3) benzimidazolium salts. Compound A.1 is an efficient chloride transporter forming channels and generating holes in bacterial membranes and red blood cellular membranes. Compound A.2 penetrates phospholipid membranes but is less efficient as ion transporter as it forms more compact aggregates; its toxicity on RBC is lower than compound A.1. The replacement of the phenyl group with a methyl group in compound A.3 results in the formation of even more compact aggregates with even lower toxicity on RBC. (B) Structure of PEB-substituted biguanidium salts. For each biguanide we prepared three series of biguanidium salts with different counterions. (C) Synthesis of 4-(phenylethynyl)benzylbiguanide 1 and 4-(phenylethyl)benzylbiguanide 2; (a) Phenylacetylene, PdCl2PPh3, CuI, PPh3, Et3N, THF, 70 °C, o.n. (b) NaCN(BH3)3, EtOHNH4OAc sat./NH3, 80 °C, o.n (c) Dicyandiamide, TMSCl, THFanh., 145 °C, 1 h (d) Pd/C 10%, H2, EtOH/AcOEt, 60 °C, 2 h. (D) Synthesis of 4-(phenylethynylphenyl)biguanidium 3 and 4-(phenylethylphenyl)biguanidium 4 (a) (1) Boc2O, THF, 2 h, (2) Phenylacetylene, PdCl2PPh3, CuI, PPH3, Et3N, THF, 70°, o.n. (b) TFA, DCM, 60 °C, 2 h (c) Dicyandiamide, TMSCl, THFanh, 145 °C, 1 h (d) Pd/C 10%, H2, EtOH/AcOEt, 60 °C, 2 h. The NMR spectra of the synthesized compounds are given in Supplementary Figs. S1–S24. (E) Relative growth of NB508 mouse pancreatic ductal adenocarcinoma cells and IMR90 fibroblasts exposed to 5 µM of PEB-biguanidium salts. Cells were incubated for 72 h at 37 °C. Errors bars represent the standard error of the mean (SEM), *p < 0.05, **p < 0.01, Student’s t test. (F) Crystal structure of 1b showing its self-assembly in the solid state. Crystal data is available in Supplementary Tables S1–S8 and crystal packing in Supplementary Fig. S25. TEXT PRINTED IN THE PICTURE: (A) A.1: HC50: 0.15 mM | (A) A.2: HC50: 1 mM | (A) A.3: HC50: 150 mM
NB508 is an aggressive pro-metastatic pancreatic cancer cell line that we used previously to study the role of mitochondria in pancreatic cancer. […].

Panc1 cells = assay: Growth assay (crystal violet), Panc1 cells; assay type: cell-based; conditions: Homo sapiens, PANC-1, 72 h
[3] = Safranin O assay, membrane potential of EYPC liposomes; conditions: 5 mM (50 mol% relative to 10 mM EYPC)
Experimental: as §1

| Compound | Effect on ECAR (extracellular acidification rate) (KP4 cells) | Effect on oxygen consumption rate (OCR) (KP4 cells) | Change of internal vesicular pH (HPTS) [1] | Growth inhibition of NB508 cells [2] | IC50 (Panc1 cells) | Membrane depolarization (Safranin-O fluorescence) [3] |
| --- | --- | --- | --- | --- | --- | --- |
| N=C(N)NC(=N)NCc1ccc(C#Cc2ccccc2)cc1 [1b, 4-(phenylethynyl)benzylbiguanide] | also observed with compound 1b | inhibited OCR | basification of the internal vesicular pH | most important antiproliferative activities | 15 µM | depolarization of the membrane |
| CN(C)C(=N)NC(=N)N [metformin, 1,1-dimethylbiguanide, reference compound] | increase of the ECAR | Inhibition of OCR | no membrane activity | no effect was observed | ~5000 µM | did not show this activity |
